13 compounds from patent US7994185B2, “Benzene sulfonamide thiazole and oxazole compounds” (Glaxo Smith Kline LLC, priority 2008, dated 2011) can be followed below.

Like-named read-outs stand apart in the source and are kept apart here.

Assay [1] concerns Human colon tumor cells (Colo205). The experiment in a line: Cell growth inhibition assay (CellTiter-Glo), Colo205. Type of assay: cell-based. In outline:
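Read-out was CellTiter-Glo luminescence (total ATP as a cell-number surrogate), expressed as % inhibition against DMSO vehicle wells. Before that, cells grown in RPMI/10% FBS were treated for 3 days at 37 °C with ten 1:3-spaced compound concentrations, final DMSO 0.2%.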
(In general: In ATP-based viability assays light output follows the ATP content of the culture.)

Assay [2] has as its target T1, BRAFV600E full-length (amino acids 2-766) (Homo sapiens, UniProt P15056, V600E).
T1 construct: His6-tagged BRAFV600E full-length (amino acids 2-766); His6; made in house; host or cells: baculovirus expression system (insect cells)
As to the kind of experiment: B-Raf Accelerated MEK ATPase assay (BRAMA). It counts as biochemical. In outline:
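Coupled-enzyme readout: ADP generated by MEK-mediated ATP hydrolysis, uncoupled from ERK phosphorylation, is linked to NADH oxidation through pyruvate kinase and lactate dehydrogenase.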

Assay [3] has as its system Human melanoma cancer cells (SK-MEL-28). As to the kind of experiment: Cell growth inhibition assay (CellTiter-Glo), SK-MEL-28. Type of assay: cell-based.
[4] abbreviates: COLO 205, 72 h, Table 2a, 3 days incubation, read-out: Activity in Colo205 Tumor Cells.
[5] abbreviates: COLO 205, Table 2b, later runs, average for the one or more runs, categorized, read-out: IC50 for Colo205.
[6] abbreviates: B-Raf Activity, Table 1a, highest pIC50 for the one or more runs, categorized.
The mark [7] stands for this setting: Table 1b, later runs, average pIC50 for the one or more runs, categorized, read-out: B-Raf pIC50 (converted).
[8] abbreviates: SK-MEL-28, 72 h, Table 3a, 3 days incubation, read-out: Activity in SK-MEL-28 Tumor Cells.
Setting [9] is: SK-MEL-28, Table 3b, later runs, average for the one or more runs, categorized, read-out: IC50 for SK-MEL-28.
Setting [10] is: B-Raf pIC50, Table 1b, later runs, average pIC50 for the one or more runs, categorized.

T1 sequence (P15056 2-766 V600E): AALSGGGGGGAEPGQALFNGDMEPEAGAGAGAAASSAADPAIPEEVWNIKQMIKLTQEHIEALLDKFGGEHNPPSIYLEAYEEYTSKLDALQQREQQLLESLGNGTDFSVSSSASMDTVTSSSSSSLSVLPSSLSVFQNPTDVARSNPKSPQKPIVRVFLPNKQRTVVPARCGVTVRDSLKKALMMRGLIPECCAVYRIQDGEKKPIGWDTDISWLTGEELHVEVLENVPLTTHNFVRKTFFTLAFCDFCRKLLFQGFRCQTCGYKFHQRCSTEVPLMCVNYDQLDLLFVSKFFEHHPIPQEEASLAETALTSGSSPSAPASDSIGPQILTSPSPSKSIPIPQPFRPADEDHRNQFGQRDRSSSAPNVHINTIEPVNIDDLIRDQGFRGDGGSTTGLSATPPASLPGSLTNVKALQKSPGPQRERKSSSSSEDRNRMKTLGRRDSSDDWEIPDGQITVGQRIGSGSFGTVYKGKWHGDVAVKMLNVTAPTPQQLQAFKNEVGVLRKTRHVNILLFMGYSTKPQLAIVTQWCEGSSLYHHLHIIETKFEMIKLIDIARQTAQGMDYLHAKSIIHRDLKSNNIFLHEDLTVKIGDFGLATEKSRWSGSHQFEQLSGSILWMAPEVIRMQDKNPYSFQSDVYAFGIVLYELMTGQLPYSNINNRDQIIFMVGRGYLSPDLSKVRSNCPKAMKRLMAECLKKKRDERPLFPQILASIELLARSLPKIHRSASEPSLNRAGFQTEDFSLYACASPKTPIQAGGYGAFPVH

In the case of `CC(C)c1nc(-c2ccc(F)c(NS(=O)(=O)c3cc(F)ccc3F)c2)c(-c2ccnc(NC3CCOCC3)n2)s1` [Example 76, 2,5-Difluoro-N-(2-fluoro-5-{2-(1-methylethyl)-5-[2-(tetrahydro-2H-pyran-4-ylamino)-4-pyrimidinyl]-1,3-thiazol-4-yl}phenyl)benzenesulfonamide], the IC50 in assay [1] (setting [4]) was 100 to 1000 nM; in assay [1] (setting [5]), 100 to 1000 nM; in assay [2] (setting [6]), less than 100 nM; in assay [2] (setting [7]), 3.16 to 31.6 nM; in assay [3] (setting [8]) it was 100 to 1000 nM; in assay [3] (setting [9]), 100 to 1000 nM.
`CC(=O)N1CCC(Nc2nccc(-c3sc(C(C)C)nc3-c3ccc(F)c(NS(=O)(=O)c4cc(F)ccc4F)c3)n2)CC1` [Example 77, N-{5-[5-{2-[(1-Acetyl-4-piperidinyl)amino]-4-pyrimidinyl}-2-(1-methylethyl)-1,3-thiazol-4-yl]-2-fluorophenyl}-2,5-difluorobenzenesulfonamide]: the IC50 in assay [1] (setting [4]) is less than 100 nM; in assay [1] (setting [5]), less than 100 nM; in assay [2] (setting [6]), less than 100 nM; in assay [2] (setting [7]), 3.16 to 31.6 nM; in assay [3] (setting [8]) it was less than 100 nM; in assay [3] (setting [9]), less than 100 nM.
As to `CC(C)(C)c1nc(-c2cccc(NS(=O)(=O)c3c(F)cccc3F)c2F)c(-c2ccnc(NC3CCN(S(C)(=O)=O)CC3)n2)s1` [Example 78, N-{3-[2-(1,1-Dimethylethyl)-5-(2-{[1-(methylsulfonyl)-4-piperidinyl]amino}-4-pyrimidinyl)-1,3-thiazol-4-yl]-2-fluorophenyl}-2,6-difluorobenzenesulfonamide], the IC50 in assay [1] (setting [4]) is less than 100 nM; in assay [1] (setting [5]), less than 100 nM; in assay [2] (setting [6]), less than 100 nM; in assay [2] (setting [10]) it was not above 3.16 nM; in assay [3] (setting [8]), less than 100 nM; in assay [3] (setting [9]), less than 100 nM.
With `CS(=O)(=O)N1CCC(Nc2nccc(-c3sc(N4CCOCC4)nc3-c3cccc(NS(=O)(=O)c4c(F)cccc4F)c3F)n2)CC1` [Example 79, 2,6-Difluoro-N-{2-fluoro-3-[5-(2-{[1-(methylsulfonyl)-4-piperidinyl]amino}-4-pyrimidinyl)-2-(4-morpholinyl)-1,3-thiazol-4-yl]phenyl}benzenesulfonamide], the IC50 is less than 100 nM in assay [1] (setting [4]); less than 100 nM in assay [1] (setting [5]); less than 100 nM in assay [2] (setting [6]); not above 3.16 nM in assay [2] (setting [10]); less than 100 nM in assay [3] (setting [8]); less than 100 nM in assay [3] (setting [9]).
Regarding `CS(=O)(=O)N1CCC(Nc2nccc(-c3sc(C4CCC4)nc3-c3ccc(F)c(NS(=O)(=O)c4cc(F)ccc4F)c3)n2)CC1` [Example 80, N-{5-[2-Cyclobutyl-5-(2-{[1-(methylsulfonyl)-4-piperidinyl]amino}-4-pyrimidinyl)-1,3-thiazol-4-yl]-2-fluorophenyl}-2,5-difluorobenzenesulfonamide], the IC50 in assay [1] (setting [4]) is 100 to 1000 nM; in assay [1] (setting [5]), 100 to 1000 nM; in assay [2] (setting [6]), less than 100 nM; in assay [2] (setting [7]) it was 3.16 to 31.6 nM; in assay [3] (setting [8]), 100 to 1000 nM; in assay [3] (setting [9]), 100 to 1000 nM.
As to `CS(=O)(=O)N1CCC(Nc2nccc(-c3sc(C4CCC4)nc3-c3cccc(NS(=O)(=O)c4cc(F)ccc4F)c3F)n2)CC1` [Example 81, N-{3-[2-Cyclobutyl-5-(2-{[1-(methylsulfonyl)-4-piperidinyl]amino}-4-pyrimidinyl)-1,3-thiazol-4-yl]-2-fluorophenyl}-2,5-difluorobenzenesulfonamide], the IC50 is less than 100 nM in assay [1] (setting [4]); less than 100 nM in assay [1] (setting [5]); less than 100 nM in assay [2] (setting [6]); not above 3.16 nM in assay [2] (setting [10]); less than 100 nM in assay [3] (setting [8]); less than 100 nM in assay [3] (setting [9]).
On to `CS(=O)(=O)N1CCC(Nc2nccc(-c3sc(N4CCOCC4)nc3-c3cccc(NS(=O)(=O)c4cc(F)ccc4F)c3F)n2)CC1` [Example 82, 2,5-Difluoro-N-{2-fluoro-3-[5-(2-{[1-(methylsulfonyl)-4-piperidinyl]amino}-4-pyrimidinyl)-2-(4-morpholinyl)-1,3-thiazol-4-yl]phenyl}benzenesulfonamide], for which the IC50 in assay [1] (setting [4]), in assay [2] and in assay [3] (setting [8]) was less than 100 nM throughout.
Regarding `CC(C)Nc1nccc(-c2sc(N3CCOCC3)nc2-c2cccc(NS(=O)(=O)c3cc(F)ccc3F)c2F)n1` [Example 83, 2,5-Difluoro-N-{2-fluoro-3-[5-{2-[(1-methylethyl)amino]-4-pyrimidinyl}-2-(4-morpholinyl)-1,3-thiazol-4-yl]phenyl}benzenesulfonamide], the IC50 in assay [1] (setting [4]) is less than 100 nM; in assay [1] (setting [5]) it was less than 100 nM; in assay [2] (setting [6]), less than 100 nM; in assay [2] (setting [10]) it was not above 3.16 nM; in assay [3] (setting [8]), less than 100 nM; in assay [3] (setting [9]), less than 100 nM.
With `CC(C)c1nc(-c2cccc(NS(=O)(=O)c3cccc(F)c3)c2)c(-c2ccnc(NCC(=O)O)n2)s1` [Example 85, N-{4-[4-(3-{[(3-Fluorophenyl)sulfonyl]amino}phenyl)-2-(1-methylethyl)-1,3-thiazol-5-yl]-2-pyrimidinyl}glycine], the IC50 was more than 1000 nM in assay [1] (setting [4]), 100 to 1000 nM in assay [2] (setting [6]), 31.6 to 1000 nM in assay [2] (setting [10]) and more than 1000 nM in assay [3] (setting [8]).
As to `CNc1nccc(-c2sc(C(C)C)nc2-c2cccc(NS(=O)(=O)c3cccc(F)c3)c2)n1` [Example 86, 3-Fluoro-N-{3-[5-[2-(methylamino)-4-pyrimidinyl]-2-(1-methylethyl)-1,3-thiazol-4-yl]phenyl}benzenesulfonamide], the IC50 was more than 1000 nM in assay [1] (setting [4]); 1000 to 10000 nM in assay [1] (setting [5]); less than 100 nM in assay [2] (setting [6]); 31.6 to 1000 nM in assay [2] (setting [10]); more than 1000 nM in assay [3] (setting [8]); 1000 to 10000 nM in assay [3] (setting [9]).
For the compound `CC(C)CNc1nccc(-c2sc(N3CCOCC3)nc2-c2cccc(NS(=O)(=O)c3c(F)cccc3F)c2F)n1` [Example 91, 2,6-Difluoro-N-{2-fluoro-3-[5-{2-[(2-methylpropyl)amino]-4-pyrimidinyl}-2-(4-morpholinyl)-1,3-thiazol-4-yl]phenyl}benzenesulfonamide], the IC50 in assay [1] (setting [4]) is less than 100 nM; in assay [1] (setting [5]), less than 100 nM; in assay [2] (setting [6]), less than 100 nM; in assay [2] (setting [10]), not above 3.16 nM; in assay [3] (setting [8]), less than 100 nM; in assay [3] (setting [9]), less than 100 nM.
Turning to `CC(C)CNc1nccc(-c2sc(C(C)(C)C)nc2-c2cccc(NS(=O)(=O)c3cc(F)ccc3F)c2F)n1` [Example 92, N-[3-(2-(1,1-Dimethylethyl)-5-{2-[(2-methylpropyl)amino]-4-pyrimidinyl}-1,3-thiazol-4-yl)-2-fluorophenyl]-2,5-difluorobenzenesulfonamide], the IC50 was less than 100 nM in assay [1] (setting [4]); less than 100 nM in assay [1] (setting [5]); less than 100 nM in assay [2] (setting [6]); 3.16 to 31.6 nM in assay [2] (setting [7]); less than 100 nM in assay [3] (setting [8]); less than 100 nM in assay [3] (setting [9]).
For `CC(C)c1nc(-c2ccc(F)c(NS(=O)(=O)c3c(F)cccc3F)c2)c(-c2ccnc(NCC(F)F)n2)s1` [Example 93, N-{5-[5-{2-[(2,2-Difluoroethyl)amino]-4-pyrimidinyl}-2-(1-methylethyl)-1,3-thiazol-4-yl]-2-fluorophenyl}-2,6-difluorobenzenesulfonamide], the IC50 in assay [1] (setting [4]) was 100 to 1000 nM; in assay [1] (setting [5]) it was 100 to 1000 nM; in assay [2] (setting [6]), less than 100 nM; in assay [2] (setting [7]) it was 3.16 to 31.6 nM; in assay [3] (setting [8]), 100 to 1000 nM; in assay [3] (setting [9]), 100 to 1000 nM.
